The source of these data is patent publication US20210009542A1 (Calico Life Sciences LLC, priority 2018, published 2021).

For assay [1], the target named is T1, His tagged PTPN2 (TC45) protein (Homo sapiens, UniProt P17706).
T1 construct: made in house
T1 sequence (P17706 with tags, fused parts or gaps isoform P17706-2): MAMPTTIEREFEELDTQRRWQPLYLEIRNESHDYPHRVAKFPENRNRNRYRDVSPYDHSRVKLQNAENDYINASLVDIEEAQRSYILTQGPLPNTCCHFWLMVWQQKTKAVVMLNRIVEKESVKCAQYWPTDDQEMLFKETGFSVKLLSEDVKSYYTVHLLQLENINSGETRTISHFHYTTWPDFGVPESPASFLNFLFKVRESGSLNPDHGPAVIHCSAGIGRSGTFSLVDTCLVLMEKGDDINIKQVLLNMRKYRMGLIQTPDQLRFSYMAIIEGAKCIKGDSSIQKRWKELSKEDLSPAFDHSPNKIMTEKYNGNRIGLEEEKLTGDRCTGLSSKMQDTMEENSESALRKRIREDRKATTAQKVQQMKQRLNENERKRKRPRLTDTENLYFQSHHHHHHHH
Kind of assay: Mobility shift assay (MSA) for potency of PTPN2 inhibitors. The assay is classed as biochemical. To be noted: read-out: PTPN2 MSA IC50. In outline:
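IC50 values were derived from % inhibition of substrate conversion, measured by microfluidic mobility shift (ex 488/em 530) after quenching. The fluorescent phosphotyrosine insulin-receptor peptide ([…]) reacted for 10 min at room temperature with 0.5 nM His-tagged TC45 PTPN2 that had been preincubated 10 min with compound (12 points, 1:3). Buffer was HEPES pH 7.5 with EGTA, EDTA, Tween 20 and DTT.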

The subject of assay [2] is B16F10 mouse melanoma cells. Kind of assay: B16F10 IFNγ-induced cellular growth inhibition assay. The assay is classed as cell-based. To be noted: Mus musculus, B16-F10, 33 μM compound. Here is the method:
B16F10 mouse melanoma cells (ATCC Cat ^#CRL-6475, Manassas, Va.) were seeded at a density of 500 cells per well in a 384-well clear bottom plate (Corning Cat^# 3765, Corning, N.Y.) in 25 μL total volume of DMEM+10% FBS (Sigma Cat ^#D6429 and Sigma Cat ^#F4135, St. Louis, Mo.). Cells were allowed to adhere overnight at 37° C.+5% CO2. On the following day, 12.5 μL of mouse IFNγ (RD systems Cat485-MI/CF, Minneapolis, Minn.) was added to half of the plate (columns 13-24) at a concentration of 2 ng/mL for a final assay concentration of 0.5 ng/mL of IFNγ. Media only (12.5 μL of DMEM+10% FBS) was added to the remainder of the plate (columns 1-12). Next, compounds resuspended in DMSO (Sigma Cat ^#D2650) at 100 mM were diluted in semi-log dilutions in DMSO ranging from 100 mM to 0.001 mM and DMSO only controls were included. The compound/DMSO dilutions were further diluted 1:250 in DMEM+10% FBS, and 12.5 μL of these dilutions were added in triplicates to cells of both treatment arms (with and without IFNγ). Final compound concentrations ranged from 100 μM to 0.001 μM with a final DMSO concentration of 0.1%. Compounds were only dosed in the inner 240 wells, avoiding the outer 2-well perimeter of the plate to minimize edge effects. Finally, the plate was loaded into an IncuCyte® S3 Live Cell Analysis System (Essen Bioscience-Sartorius, Ann Arbor, Mich.) maintained in a 37° C.+5% CO2 incubator, allowed to equilibrate for 2 hours, and imaged every 6 hours for 5 days. Confluence over time for compound dilutions in the presence and absence of IFNγ was measured. Growth inhibition values were obtained when the “DMSO/no IFNγ” control reached confluence >95%. At these time points, the percent growth inhibition of each compound at the indicated concentration was calculated relative to the “DMSO/with IFNγ” control.

[3] abbreviates: +0.5 ng/mL IFNγ, relative to DMSO control, read-out: % B16F10 growth inhibition (+0.5 ng/mL IFNγ) @ 33 μM.
Setting [4] is: no IFNγ, read-out: % B16F10 growth inhibition (no IFNγ) @ 33 μM.

Read-outs that look alike come from different tables or passages of the source. Where only a bound is given, the exact number is not on record here.

The term IC50 denotes the concentration that gives 50% inhibition. Turning to `O=C1CN(c2c(O)cc3ccc(OCCN4CCCCC4)cc3c2F)S(=O)(=O)N1` [Compound 112, 5-{1-fluoro-3-hydroxy-7-[2-(piperidin-1-yl)ethoxy]naphthalen-2-yl}-1λ^6,2,5-thiadiazolidine-1,1,3-trione], the IC50 in assay [1] fell in the range of 10 to 100 nM. Further, the inhibition at 33 µM was 25 to 59% in assay [2] (setting [3]) and less than 25% in assay [2] (setting [4]).
For the molecule `O=C1CN(c2c(O)cc3ccc(OCC4CCNCC4)cc3c2F)S(=O)(=O)N1` [Compound 114, 5-{1-fluoro-3-hydroxy-7-[(piperidin-4-yl)methoxy]naphthalen-2-yl}-1λ^6,2,5-thiadiazolidine-1,1,3-trione], the IC50 in assay [1] was in the range of 1 to 10 nM. Besides, the inhibition at 33 µM is 60 to 90% in assay [2] (setting [3]) and less than 25% in assay [2] (setting [4]).
For `CC(C)(CC#N)CCOc1ccc2cc(O)c(N3CC(=O)NS3(=O)=O)c(F)c2c1` [Compound 115, 5-{[8-fluoro-6-hydroxy-7-(1,1,4-trioxo-1λ^6,2,5-thiadiazolidin-2-yl)naphthalen-2-yl]oxy}-3,3-dimethylpentanenitrile], the IC50 in assay [1] is less than 1 nM. Moreover, the inhibition at 33 µM was 60 to 90% in assay [2] (setting [3]) and less than 25% in assay [2] (setting [4]).
As for `CC(C)(C)CCNc1ccc2cc(O)c(N3CC(=O)NS3(=O)=O)c(F)c2c1` [Compound 116, 5-{7-[(3,3-dimethylbutyl)amino]-1-fluoro-3-hydroxynaphthalen-2-yl}-1λ^6,2,5-thiadiazolidine-1,1,3-trione], in assay [1], the IC50 lay in the range of 1 to 10 nM. In addition, the inhibition at 33 µM is greater than 90% in assay [2] (setting [3]) and less than 25% in assay [2] (setting [4]).
In the same order, the values of `COc1ccc2c(F)c(O)c(N3CC(=O)NS3(=O)=O)c(F)c2c1` [Compound 117, 5-(1,4-difluoro-3-hydroxy-7-methoxynaphthalen-2-yl)-1λ^6,2,5-thiadiazolidine-1,1,3-trione] are 1 to 10 nM, 25 to 59% and less than 25%.
`[2H]C([2H])([2H])Oc1ccc2cc(O)c(N3CC(=O)NS3(=O)=O)c(F)c2c1` [Compound 118, 5-{1-fluoro-3-hydroxy-7-[(^2H3)methyloxy]naphthalen-2-yl}-1λ^6,2,5-thiadiazolidine-1,1,3-trione]: in assay [1], the IC50 lay in the range of 1 to 10 nM. For the same molecule, the inhibition at 33 µM was 60 to 90% in assay [2] (setting [3]) and less than 25% in assay [2] (setting [4]).
Taken in the same sequence, the figures for `COCCOc1ccc2cc(O)c(N3CC(=O)NS3(=O)=O)c(F)c2c1` [Compound 119, 5-[1-fluoro-3-hydroxy-7-(2-methoxyethoxy)naphthalen-2-yl]-1λ^6,2,5-thiadiazolidine-1,1,3-trione] were 1 to 10 nM, 60 to 90% and less than 25%.
Taken in the same sequence, the figures for `CC(C)(C#N)CCOc1ccc2cc(O)c(N3CC(=O)NS3(=O)=O)c(F)c2c1` [Compound 120, 4-{[8-fluoro-6-hydroxy-7-(1,1,4-trioxo-1λ^6,2,5-thiadiazolidin-2-yl)naphthalen-2-yl]oxy}-2,2-dimethylbutanenitrile] were less than 1 nM, 60 to 90% and less than 25%.
For `[2H]C1([2H])C(=O)NS(=O)(=O)N1c1c(O)cc2ccc(OC)cc2c1F` [Compound 123, 5-(1-fluoro-3-hydroxy-7-methoxynaphthalen-2-yl)(4,4-^2H2)-1λ^6,2,5-thiadiazolidine-1,1,3-trione], the IC50 in assay [1] lay within 1 to 10 nM. In addition, the inhibition at 33 µM was 60 to 90% in assay [2] (setting [3]) and less than 25% in assay [2] (setting [4]).
Taken in the same sequence, the figures for `O=C1CN(c2c(O)cc3ccc(NCCNS(=O)(=O)C4CC4)cc3c2F)S(=O)(=O)N1` [Compound 125, N-(2-{[8-fluoro-6-hydroxy-7-(1,1,4-trioxo-1λ^6,2,5-thiadiazolidin-2-yl)naphthalen-2-yl]amino}ethyl)cyclopropanesulfonamide] were 1 to 10 nM, 60 to 90% and less than 25%.
Regarding `O=C1CN(c2c(O)cc3ccc(OCCNS(=O)(=O)C4CC4)cc3c2F)S(=O)(=O)N1` [Compound 127, N-(2-{[8-fluoro-6-hydroxy-7-(1,1,4-trioxo-1λ^6,2,5-thiadiazolidin-2-yl)naphthalen-2-yl]oxy}ethyl)cyclopropanesulfonamide], the IC50 in assay [1] is less than 1 nM. Further, the inhibition at 33 µM in assay [2] (setting [3]) was 60 to 90%; in assay [2] (setting [4]), less than 25%.
Take `CS(=O)(=O)N1CC(Nc2ccc3cc(O)c(N4CC(=O)NS4(=O)=O)c(F)c3c2)C1` [Compound 128, 5-(1-fluoro-3-hydroxy-7-{[1-(methanesulfonyl)azetidin-3-yl]amino}naphthalen-2-yl)-1λ^6,2,5-thiadiazolidine-1,1,3-trione]: the IC50 in assay [1] was in the range of 1 to 10 nM. Moreover, the inhibition at 33 µM was greater than 90% in assay [2] (setting [3]) and less than 25% in assay [2] (setting [4]).
As to `N#CCCCOc1ccc2cc(O)c(N3CC(=O)NS3(=O)=O)c(F)c2c1` [Compound 129, 4-{[8-fluoro-6-hydroxy-7-(1,1,4-trioxo-1λ^6,2,5-thiadiazolidin-2-yl)naphthalen-2-yl]oxy}butanenitrile], the IC50 in assay [1] was less than 1 nM. Also, the results for the inhibition at 33 µM in assay [2] (setting [3]) and in assay [2] (setting [4]) were greater than 90% and less than 25%, respectively.
Taken in the same sequence, the figures for `N#CCC1(COc2ccc3cc(O)c(N4CC(=O)NS4(=O)=O)c(F)c3c2)CC1` [Compound 130, [1-({[8-fluoro-6-hydroxy-7-(1,1,4-trioxo-1λ^6,2,5-thiadiazolidin-2-yl)naphthalen-2-yl]oxy}methyl)cyclopropyl]acetonitrile] were less than 1 nM, 60 to 90% and less than 25%.
With `O=C1CN(c2c(O)cc3ccc(-c4cnn(CC5CC5)c4)cc3c2F)S(=O)(=O)N1` [Compound 132, 5-{7-[1-(cyclopropylmethyl)-1H-pyrazol-4-yl]-1-fluoro-3-hydroxynaphthalen-2-yl}-1λ^6,2,5-thiadiazolidine-1,1,3-trione], the concentration for half-maximal inhibition (IC50) in assay [1] is less than 1 nM. Besides, the inhibition at 33 µM is 60 to 90% in assay [2] (setting [3]) and less than 25% in assay [2] (setting [4]).
In the same order, the values of `CP(C)(=O)c1ccc(-c2ccc3cc(O)c(N4CC(=O)NS4(=O)=O)c(F)c3c2)s1` [Compound 141, 5-{7-[5-(dimethylphosphoryl)thiophen-2-yl]-1-fluoro-3-hydroxynaphthalen-2-yl}-1λ^6,2,5-thiadiazolidine-1,1,3-trione] are less than 1 nM, 60 to 90% and less than 25%.
In the same order, the values of `C[C@H](O)CCOc1ccc2cc(O)c(N3CC(=O)NS3(=O)=O)c(F)c2c1` [Compound 147, 5-{1-fluoro-3-hydroxy-7-[(3S)-3-hydroxybutoxy]naphthalen-2-yl}-1λ^6,2,5-thiadiazolidine-1,1,3-trione] are less than 1 nM, greater than 90% and less than 25%.
In the same order, the values of `CCC(=O)CCOc1ccc2cc(O)c(N3CC(=O)NS3(=O)=O)c(F)c2c1` [Compound 155, 5-{1-fluoro-3-hydroxy-7-[(3-oxopentyl)oxy]naphthalen-2-yl}-1λ^6,2,5-thiadiazolidine-1,1,3-trione] are less than 1 nM, 60 to 90% and 60 to 90%.
For the molecule `O=C1CN(c2c(O)cc3ccc(OCCCC(F)(F)F)cc3c2F)S(=O)(=O)N1` [Compound 158, 5-[1-fluoro-3-hydroxy-7-(4,4,4-trifluorobutoxy)naphthalen-2-yl]-1λ^6,2,5-thiadiazolidine-1,1,3-trione], the IC50 in assay [1] is 1 to 10 nM. Further, the inhibition at 33 µM is 60 to 90% in assay [2] (setting [3]) and less than 25% in assay [2] (setting [4]).
